Experimental data: publication PMC5424327, “Boosting LPMO-driven lignocellulose degradation by polyphenol oxidase-activated lignin building blocks” (Biotechnology for Biofuels, 2017)

Target: T1, MtPPO7 (Thermothelomyces thermophilus, UniProt A0A1C9CXH9)
T1 construct: secreted enzyme over-expressed in homologous M. thermophila C1 (low protease/low (hemi-)cellulase strain), fractionated from culture broth; KX772412 is printed as 'UniProt' but has GenBank format
T1 sequence (A0A1C9CXH9 19-420): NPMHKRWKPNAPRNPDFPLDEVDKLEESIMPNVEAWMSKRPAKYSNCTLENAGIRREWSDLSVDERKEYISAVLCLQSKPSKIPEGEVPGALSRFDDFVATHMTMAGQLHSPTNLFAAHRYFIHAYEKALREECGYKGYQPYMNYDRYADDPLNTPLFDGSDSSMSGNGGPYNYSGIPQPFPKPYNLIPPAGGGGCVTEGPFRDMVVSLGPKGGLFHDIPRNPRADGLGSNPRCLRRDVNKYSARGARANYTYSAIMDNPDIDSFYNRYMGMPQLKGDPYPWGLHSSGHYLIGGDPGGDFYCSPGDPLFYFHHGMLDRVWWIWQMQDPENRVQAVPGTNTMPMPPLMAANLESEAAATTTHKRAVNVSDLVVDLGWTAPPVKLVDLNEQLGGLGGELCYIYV
Test: UHPLC-UV-MSn of substrate conversion
Format: biochemical
Details: 2 mM substrate, 5.0 ug/mL enzyme, 50 mM potassium phosphate pH 6.0, 2.5 uM CuCl2, 50 °C, 24 h; ortho-hydroxylation

COc1ccccc1O [compound 9, Guaiacol]
conversion (%): The conversion of guaiacol by MtPPO7 resulted in the initial formation of 3-methoxycatechol
